Laboratory results taken from PubChem BioAssay AID1918934 (Molecular Pharmacology Branch, DTP, NCI, 2023).

Test system: 292921-168-R-J2-PDC complex spheroid viability
Assay: Anticancer human tumor 292921-168-R-J2-PDC patient-derived pancreatic carcinoma cell line growth inhibition
Conditions: for IC50: curve of first compound; for viability, T/C: stronger effect = lower value
In short: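 Multicellular complex spheroids of tumor cells with human endothelial cells (HUVEC) and mesenchymal stem cells; the LSD1 inhibitor iadademstat was combined with standard-of-care or investigational agents. Top concentration at or near clinical Cmax, half-log dilutions; final DMSO ≤0.25%.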
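Also: seven day compound exposure before luminescent viability read.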
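For viability, T/C in this document: 100% = DMSO vehicle control wells.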

In the case of COc1cc(C2c3cc4c(cc3C(OC3OC5COC(C)OC5C(O)C3O)C3COC(=O)C23)OCO4)cc(OC)c1O (stereo not given) + NC1CCC(NC2CC2c2ccccc2)CC1, the IC50 (second compound 0.1 µM) is reported as 23.8 nM, the IC50 (second compound 0.316 µM) is reported as 24.2 nM and the IC50 (second compound 1 µM) is reported as 16.3 nM. It also gave an IC50 (second compound 3.16 µM) of 15.3 nM, an IC50 (second compound 10 µM) of 9.52 nM and a viability, T/C (second compound 0.1 µM, first compound 0.00949 µM) of 62.7%. It also gave a viability, T/C (second compound 0.1 µM, first compound 0.03 µM) of 48.7%, a viability, T/C (second compound 0.1 µM, first compound 0.0949 µM) of 27.9% and a viability, T/C (second compound 0.1 µM, first compound 0.3 µM) of 20.8%. The viability, T/C (second compound 0.1 µM, first compound 0.949 µM) was 11.2%, the viability, T/C (second compound 0.1 µM, first compound 3 µM) was 5.3% and the viability, T/C (second compound 0.316 µM, first compound 0.00949 µM) was 67.6%. For the same molecule, the viability, T/C (second compound 0.316 µM, first compound 0.03 µM) was 45.2%, the viability, T/C (second compound 0.316 µM, first compound 0.0949 µM) was 29.6% and the viability, T/C (second compound 0.316 µM, first compound 0.3 µM) was 21.5%. The viability, T/C (second compound 0.316 µM, first compound 0.949 µM) was 8.7%, the viability, T/C (second compound 0.316 µM, first compound 3 µM) was 6.82% and the viability, T/C (second compound 1 µM, first compound 0.00949 µM) was 56%. For the same molecule, the viability, T/C (second compound 1 µM, first compound 0.03 µM) was 42.9%, the viability, T/C (second compound 1 µM, first compound 0.0949 µM) was 30.5% and the viability, T/C (second compound 1 µM, first compound 0.3 µM) was 20%. For the same molecule, the viability, T/C (second compound 1 µM, first compound 0.949 µM) was 8.76%, the viability, T/C (second compound 1 µM, first compound 3 µM) was 5.56% and the viability, T/C (second compound 3.16 µM, first compound 0.00949 µM) was 56.1%. The viability, T/C (second compound 3.16 µM, first compound 0.03 µM) was 40.5%, the viability, T/C (second compound 3.16 µM, first compound 0.0949 µM) was 30.7% and the viability, T/C (second compound 3.16 µM, first compound 0.3 µM) was 19%. The viability, T/C (second compound 3.16 µM, first compound 0.949 µM) was 8.55%, the viability, T/C (second compound 3.16 µM, first compound 3 µM) was 7.39% and the viability, T/C (second compound 10 µM, first compound 0.00949 µM) was 50.1%. The viability, T/C (second compound 10 µM, first compound 0.03 µM) was 38.8%, the viability, T/C (second compound 10 µM, first compound 0.0949 µM) was 27.3% and the viability, T/C (second compound 10 µM, first compound 0.3 µM) was 16.3%. For the same molecule, the viability, T/C (second compound 10 µM, first compound 0.949 µM) was 9.55% and the viability, T/C (second compound 10 µM, first compound 3 µM) was 6.68%.
